Test results published in US20230346743A1, “COMBINATION CANCER THERAPIES” (The Board of Regents of the University of Oklahoma, priority 2018, published 2023).

Tests used:
[1] = system: MESOV human ovarian cancer cells; assay: Tumor establishment after intraperitoneal injection of MESOV cells (secondary chemoprevention model); type: in vivo; conditions: nu/nu mice, MESOV i.p.
Experimental: Four-week-old female athymic nude mice (NCr-Foxn1^nu) were obtained from Taconic Biosciences under an approved Institutional Animal Care and Use Committee (IACUC) protocol. Mice were acclimatized for two weeks, fed with a standard diet and ear tagged during the acclimatization period. The timing to tumor development after intraperitoneal injection with various amounts of MESOV cells was determined in a pilot study prior. In the intervention experiment, 6-week-old mice were injected with 20 million MESOV human ovarian cancer cells in their intraperitoneal region. Drug treatment was initiated 4 weeks after the injection of cancer cells. Mice were randomized to four treatment groups before the start of treatment based on their body weight. There was no significant (one-way ANOVA, p >0.999) difference in body weight between groups at the start of treatment. Twelve mice were allocated to each group based on the power analysis performed while designing experiment. […] Controls were gavaged with Kolliphor HS15 (30% in water). […] (10 mg/kg) was dissolved in phosphate buffered saline and injected into the peritoneum of mice every other day. Initially SHetA2 dosing was administered every day for two weeks in SHetA2 alone and drug combination groups, and then switched to every other day for the next three weeks due to the stress caused to the mice by daily gavage. Oral gavaging was performed with sterile disposable plastic feeding tubes 20 ga × 38 mm (Instech Laboratories, Inc., Plymouth Meeting, PA, USA). Three mice in the drug combination group died after two weeks of drug treatment due to gavaging incidents. Body weights were recorded and animal health was monitored weekly. After the end of drug intervention period, all mice were euthanized by CO2 asphyxiation followed by exsanguination, their tumors and other vital organs were collected for further analysis. After measuring the total tumor weight, a portion of the tumors were snap frozen in liquid nitrogen and another portion was formalin fixed. The formalin fixed tissue samples were paraffin embedded, sectioned and stained with hematoxylin and eosins for histology studies. An experienced pathologist reviewed blinded histology slides for kidney and liver toxicity. Presence or absence of tumor at the end of the treatment period was used as the primary outcome measure. […] Two by two logistic regression was used to compare the four treatment groups (Untreated control, SHetA2, […] combination) in the study. Mice in the first 3 groups had complete data, while 3 mice in the combo group died early and had zero tumor weights. […]

[2] = system: SiHa cervical cancer cell line xenograft; assay: SiHa xenograft tumor growth; type: in vivo, mice; conditions: gavage 60 mg/kg SHetA2, 100 mg/kg palbociclib or the combination every other day
Excerpt: FIG. 49. […] Controls were gavaged with the same Kolliphor HS15 used to suspend the drugs. Using a generalized estimating equations (GEE) model to analyze tumor growth treated as a continuous variable, there was a significant additive effect of SHetA2 (p<0.001) and palbociclib (p<0.001) on day 65 of treatment. This additive effect between SHetA2 (p=0.001) and palbociclib (p=0.051) was trending significant at day 63 of treatment. Additionally, SHetA2 starts to show significant tumor suppressing activity as early as day 63 of treatment (p=0.045).

Cervical Cancer = assay: Dose reduction index at various fold effects in cervical cancer; type: cell-based, human; conditions: cell line not named
Excerpt: Combination Indices (CI's) were derived to determine the level of synergy using the Chow and Talalay method. […] The Dose Reduction Indices (DRIs) were derived to determine the level of reduction for one drug that could be allowed by addition of the second drug at various fold effects (Fas) of the combination treatment (Table 16).

FTSECs = assay: MTT cytotoxicity assay and Chou-Talalay drug interaction; type: cell-based, human; conditions: hFTSECs
Experimental: (§1) Cells plated at 2000 cells/well in 96 well microtiter plates were incubated for 36-48 h and treated with a range of doses and combinations of SHetA2 and PRIMA-1 or PRIMA-1^MET, or the same volume of DMSO solvent for 72 h of incubation. The percentage of growth for single drug treatments or fold effect (1 - ratio of treated/untreated growth) was measured using the CellTiter 96 AQueous Non-Radioactive Cell Proliferation Assay (Promega, Madison, WI, USA) and the BioTeK SYNERGY H1 (BioTeK, Winooski, VT, USA). Each experiment was performed in triplicate and repeated 2-3 times.
(§2) The potencies (IC50′s) of SHetA2 or PRIMA-1 were determined using GraphPad Prism 6 software analysis of average MTT Optical Density vs drug dose. […] Single drug treatments at doses surrounding the IC50 values were evaluated parallel. All treatments were performed in triplicate and averages used to draw isobolograms and calculate combination indices (CI) and dose-reduction indices (DRIs) using CompuSyn Software according to the Chou and Talalay method (op cit). All experiments were repeated at least twice for each cell line to confirm results.

A2780 (WT p53) = assay: as above; type: cell-based, human
Experimental: as §1, §2

For CC1(C)CC(C)(C)c2cc(NC(=S)Nc3ccc([N+](=O)[O-])cc3)ccc2S1 [SHetA2], the “OR for preventing tumor development (additive logistic regression model)” value [1] was 10.384, the Tumor-free rates ([1]; SHetA2 60 mg/kg gavage, PRIMA-1^MET 10 mg/kg i.p., treatment from day 28 for 38 days) was 42% and the “SiHa xenograft tumor growth” value [2] was “significantly reduce SiHa cervical cancer cell line xenograft tumor growth”. For the same molecule, the “SHetA2 Dose” value (Cervical Cancer; Fold Effect (Fa) 0.05) was 5.44, the “SHetA2 Dose” value (Cervical Cancer; Fold Effect (Fa) 0.75) was 8.23 and the “SHetA2 Dose” value (Cervical Cancer; Fold Effect (Fa) 0.90) was 12.43. For the same molecule, the “SHetA2 Dose” value (Cervical Cancer; Fold Effect (Fa) 0.95) was 16.47, the “SHetA2 sensitivity compared with ovarian cancer cell lines” value (FTSECs) was “least sensitive” and the IC50 (A2780 (WT p53); A2780 cells with shRNA knockdown of p53, MTT) was 4.8 µM. It also gave an IC50 (A2780 (WT p53); A2780 cells without p53 knockdown (empty vector), MTT) of 2.8 µM.
